Assay results from patent US10065990B2, “Cyclic peptide compound, and preparation method, pharmaceutical composition and use thereof” (HANGZHOU GUANYU BIO-MEDICAL CO., LTD, priority 2013, dated 2018).
Read-outs that look alike come from different tables or passages of the source.

Assays:
HDAC2 = HDAC2 (Homo sapiens, UniProt Q92769); assay: HDAC biochemical activity measurement (fluorescent substrate deacetylation);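 also: HDAC2 enzyme with an acetyl-lysine fluorescent substrate, then developer added, fluorescence read at excitation 360 nm and emission 460 nm, inhibition measured across several compound concentrations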; conditions: 37° C. 30 minutes
Sequence of HDAC2 (Q92769 whole entry, species assumed): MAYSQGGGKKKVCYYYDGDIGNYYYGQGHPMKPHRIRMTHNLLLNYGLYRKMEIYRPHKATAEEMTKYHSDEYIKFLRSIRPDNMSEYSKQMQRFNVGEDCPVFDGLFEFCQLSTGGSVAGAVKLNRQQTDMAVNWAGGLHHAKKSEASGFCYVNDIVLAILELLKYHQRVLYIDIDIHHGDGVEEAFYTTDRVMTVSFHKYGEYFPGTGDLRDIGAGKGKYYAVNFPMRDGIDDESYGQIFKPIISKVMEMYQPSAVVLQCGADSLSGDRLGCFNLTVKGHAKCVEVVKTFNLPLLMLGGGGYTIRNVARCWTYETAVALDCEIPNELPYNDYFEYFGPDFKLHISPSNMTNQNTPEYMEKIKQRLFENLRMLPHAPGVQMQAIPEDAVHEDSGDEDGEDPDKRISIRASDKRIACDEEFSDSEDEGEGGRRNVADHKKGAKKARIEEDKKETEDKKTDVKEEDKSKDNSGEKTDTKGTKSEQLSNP

[1] = tested on: A549 (human lung cancer cells); assay: MTT cancer cell growth inhibition; type: cell-based; conditions: MTT
How it was run: (§1)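 Tumour cells in 10% FBS-supplemented DMEM or RPMI 1640 are plated at 1500 per well, dosed next day with compound (10^−5 through 10^−10 M, final) and kept 72 h. MTT is added for 4 h; dissolved formazan is measured at 570 nm and GI50 determined.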

[2] = tested on: Bel-7402 (human hepatoma cells); assay: MTT cancer cell growth inhibition; type: cell-based; conditions: MTT, 72 hours incubation, Bel-7402 cells, read-out: GI50 Bel-7402
How it was run: as §1

[3] = tested on: DU145 (human prostate cancer cells); assay: MTT cancer cell growth inhibition; type: cell-based; conditions: MTT
How it was run: as §1

[4] = tested on: H1975 (non-small cell lung adenocarcinoma); assay: MTT cancer cell growth inhibition; type: cell-based; conditions: MTT, 72 hours incubation, H1975 cells, read-out: GI50 H1975
How it was run: as §1

[5] = tested on: HCC827 (human non-small cell lung cancer cells); assay: MTT cancer cell growth inhibition; type: cell-based; conditions: MTT, 72 hours incubation, HCC827 cells, read-out: GI50 HCC827
How it was run: as §1

[6] = tested on: K562 (human leukemia cells); assay: MTT cancer cell growth inhibition; type: cell-based; conditions: MTT, 72 hours incubation, K562 cells, read-out: GI50 K562
How it was run: as §1

[7] = tested on: MCF-7 (human breast cancer cells); assay: MTT cancer cell growth inhibition; type: cell-based
How it was run: as §1

[8] = tested on: MOLT-4 (human acute lymphoblastic leukemia cells); assay: MTT cancer cell growth inhibition; type: cell-based; conditions: MTT
How it was run: as §1

[9] = tested on: PANC-1 (Pac-1, human pancreatic cancer cells); assay: MTT cancer cell growth inhibition; type: cell-based; conditions: MTT
How it was run: as §1

[10] = tested on: U937 (human leukemia cells); assay: MTT cancer cell growth inhibition; type: cell-based; conditions: MTT
How it was run: as §1

[11] = tested on: lncap (prostate cancer cells); assay: MTT cancer cell growth inhibition; type: cell-based; conditions: MTT
How it was run: as §1

HDAC11 = target: T1, HDAC11 (Homo sapiens, UniProt Q96DB2); assay: HDAC biochemical activity measurement (fluorescent substrate deacetylation);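 also: HDAC11 enzyme acting on an acetyl-lysine fluorogenic substrate, then a developer frees the fluorophore, read at excitation 360 nm and emission 460 nm, IC50 over a compound dilution series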
T1 sequence (Q96DB2 1-347): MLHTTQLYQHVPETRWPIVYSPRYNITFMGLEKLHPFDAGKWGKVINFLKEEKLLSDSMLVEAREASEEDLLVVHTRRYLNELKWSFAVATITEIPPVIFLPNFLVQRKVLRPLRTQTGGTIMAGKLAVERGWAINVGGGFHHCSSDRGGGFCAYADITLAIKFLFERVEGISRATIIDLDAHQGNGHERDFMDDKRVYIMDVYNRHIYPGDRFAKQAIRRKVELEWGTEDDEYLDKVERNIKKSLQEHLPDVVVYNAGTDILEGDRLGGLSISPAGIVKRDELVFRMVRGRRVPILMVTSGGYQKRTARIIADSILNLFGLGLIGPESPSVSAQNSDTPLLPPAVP

[12] = Homo sapiens, A549, 72 h, 72 hours incubation, read-out: GI50 A54
[13] = Homo sapiens, DU-145, 72 h, 72 hours incubation, read-out: GI50 Du1
[14] = Homo sapiens, MCF7, 72 h, 72 hours incubation, read-out: GI50 MCF
[15] = Homo sapiens, MOLT-4, 72 h, 72 hours incubation, read-out: GI50 Mol
[16] = Homo sapiens, PANC-1, 72 h, 72 hours incubation, read-out: GI50 PAN
[17] = Homo sapiens, U-937, 72 h, 72 hours incubation, read-out: GI50 U93
[18] = Homo sapiens, LNCaP, 72 h, 72 hours incubation, read-out: GI50 lnca
[19] = read-out: IC50 HDAC11, HDAC11, 37° C. 30 minutes
[20] = Homo sapiens, A549, 72 h, A549 cells, 72 hours incubation, read-out: GI50 A54
[21] = Homo sapiens, DU-145, 72 h, DU145 cells, 72 hours incubation, read-out: GI50 Du1
[22] = Homo sapiens, MCF7, 72 h, MCF-7 cells, 72 hours incubation, read-out: GI50 MCF
[23] = Homo sapiens, MOLT-4, 72 h, MOLT-4 cells, 72 hours incubation, read-out: GI50 Mol
[24] = Homo sapiens, PANC-1, 72 h, PANC-1 cells, 72 hours incubation, read-out: GI50 PAN
[25] = Homo sapiens, U-937, 72 h, U937 cells, 72 hours incubation, read-out: GI50 U93
[26] = Homo sapiens, LNCaP, 72 h, lncap cells, 72 hours incubation, read-out: GI50 lnca

Row | Structure (SMILES) | IC50 (HDAC2) [nM] | GI50 [1, 12] [nM] | GI50 ([2]; Homo sapiens, Bel-7402, 72 h) [nM] | GI50 [3, 13] [nM] | GI50 ([4]; Homo sapiens, NCI-H1975, 72 h) [nM] | GI50 ([5]; Homo sapiens, HCC827, 72 h) [nM] | GI50 ([6]; Homo sapiens, K562, 72 h) [nM] | GI50 [7, 14] [nM] | GI50 [8, 15] [nM] | GI50 [9, 16] [nM] | GI50 [10, 17] [nM] | GI50 [11, 18] [nM] | IC50 (HDAC11; [19]) [nM] | IC50 (HDAC11) [nM] | other results
1 | C/C=C1\NC(=O)c2cc(F)cc(n2)CNC(=O)C[C@@H](/C=C/CCSC(=O)CC)OC(=O)[C@H](C(C)C)NC1=O [Compound 46] | 41 | 50 | 52 | 30 | 37 | 52 | 35 | 40 | 30 | 50 | 30 | 30 | 82 |  | 
2 | C/C=C1\NC(=O)c2nc(ccc2F)CNC(=O)C[C@@H](/C=C/CCSC=O)OC(=O)[C@H](C(C)C)NC1=O [Example 51] | 52 | 40 | 72 | 40 | 63 | 72 | 46 | 70 | 20 | 70 | 60 | 20 |  | 103 | 
3 | C/C=C1\NC(=O)c2cccc(n2)CCNC(=O)C[C@@H](/C=C/CCSC(C)=O)OC(=O)[C@H](C(C)C)NC1=O [Example 26] | 64 | 38900 | 97 | 11700 | 31 | 55 | 17 | 53700 | 3350 | 770 | 9500 | 9000 |  | 94 | 
4 | C/C=C1\NC(=O)c2nc(ccc2C)CNC(=O)C[C@@H](/C=C/CCSC(C)=O)OC(=O)[C@H](Cc2ccccc2)NC1=O [Compound 66] | 16 | 20 | 34 | 30 | 27 | 34 | 37 | 30 | 30 | 30 | 20 | 30 | 94 |  | 
5 | C/C=C1\NC(=O)c2cccc(n2)CNC(=O)C[C@@H](/C=C/CCSC(C)=O)OC(=O)[C@H](Cc2ccc(O)cc2)NC1=O [Compound 18] | 55 | 3800 | 95 | 420 | 53 | 59 | 35 | 490 | 59700 | 42100 | 11300 | 10300 | 107 |  | 
6 | C/C=C1\NC(=O)c2nc(ccc2F)CNC(=O)C[C@@H](/C=C/CCSC(C)=O)OC(=O)[C@H](C(C)C)NC1=O [Example 48] | 15 | 60 |  | 20 |  |  |  | 60 | 30 | 40 | 20 | 30 |  | 93 | GI50 [2]: 42 nM; GI50 [4]: 28 nM; GI50 [5]: 42 nM; GI50 [6]: 28 nM
7 | C/C=C1\NC(=O)c2ncc(SC)c(n2)CNC(=O)C[C@@H](/C=C/CCSC(C)=O)OC(=O)[C@H](C(C)C)NC1=O [Compound 217] | 43 |  |  |  |  |  |  |  |  |  |  |  | 93 |  | GI50 ([1]; A549 cells, 72 hours incubation, read-out: GI50 A54): 70 nM; GI50 [2]: 37 nM; GI50 ([3]; DU145 cells, 72 hours incubation, read-out: GI50 Du1): 20 nM; GI50 [4]: 43 nM; GI50 [5]: 29 nM; GI50 [6]: 62 nM; GI50 ([7]; MCF-7 cells, 72 hours incubation, read-out: GI50 MCF): 60 nM; GI50 ([8]; MOLT-4 cells, 72 hours incubation, read-out: GI50 Mol): 90 nM; GI50 ([9]; PANC-1 cells, 72 hours incubation, read-out: GI50 PAN): 70 nM; GI50 ([10]; U937 cells, 72 hours incubation, read-out: GI50 U93): 90 nM; GI50 ([11]; lncap cells, 72 hours incubation, read-out: GI50 lnca): 30 nM
8 | C/C=C1\NC(=O)c2cccc(n2)CNC(=O)C[C@@H](/C=C/CCSC(=O)CCCCCCC)OC(=O)CNC1=O [Compound 235] | 19 |  | 91 |  | 63 | 85 | 42 |  |  |  |  |  | 19 |  | GI50 [1, 20]: 30 nM; GI50 ([1]; Homo sapiens, A549, 72 h, 72 hours, present invention, read-out: GI50 A549, a): 34 nM; GI50 [3, 21]: 30 nM; GI50 ([3]; Homo sapiens, DU-145, 72 h, 72 hours, present invention, read-out: GI50 Du145, a): 3 nM; GI50 ([7]; Homo sapiens, MCF7, 72 h, 72 hours, present invention, read-out: GI50 MCF7, a): 56 nM; GI50 [7, 22]: 50 nM; GI50 [8, 23]: 70 nM; GI50 ([8]; Homo sapiens, MOLT-4, 72 h, 72 hours, present invention, read-out: GI50 Molt-4, a): 7 nM; GI50 ([9]; Homo sapiens, PANC-1, 72 h, 72 hours, present invention, read-out: GI50 PANC-1, a): 230 nM; GI50 [9, 24]: 230 nM; GI50 ([10]; Homo sapiens, U-937, 72 h, 72 hours, present invention, read-out: GI50 U937, a): 6 nM; GI50 [10, 25]: 60 nM; GI50 ([11]; Homo sapiens, LNCaP, 72 h, 72 hours, present invention, read-out: GI50 lncap, a): 40 nM; GI50 [11, 26]: 40 nM
9 | C/C=C1\NC(=O)c2nc(ccc2SC)CNC(=O)C[C@@H](/C=C/CCSC=O)OC(=O)[C@H](C(C)C)NC1=O [Compound 168] | 41 |  | 44 |  | 66 | 35 | 34 |  |  |  |  |  |  | 99 | GI50 [1, 20]: 80 nM; GI50 [3, 21]: 50 nM; GI50 [7, 22]: 60 nM; GI50 [8, 23]: 100 nM; GI50 [9, 24]: 60 nM; GI50 [10, 25]: 40 nM; GI50 [11, 26]: 20 nM
